Test results: patent US11725000B2, “Apoptosis inhibitors” (National Institute of Biological Sciences, Beijing, priority 2017, dated 2023)

Tested on: U2OS_Bim cells
Experiment: Apoptosis inhibition assay (Bim-induced apoptosis, cell viability by ATP level)
Type: cell-based
Settings: U2OS_Bim cells; means of duplicates; numbering of Tables 4a/4b; read-out: EC50
Method: A chemical library containing 200000 compounds was screened according to the following procedure: U2OS_Bim cells (a cell line in which the BH3-only protein Bim can be inducibly expressed by the addition of Doxycycline to the growth medium)^[2] were plated in 384-well plates with 30 μl medium at a density of 500 cells per well. 16 hrs after plating, test compounds were transferred from stock plates to the assay plates with the cultured cells. Positive control (20 μM zVAD) and negative control (DMSO) were added to every plate. 1 hr after compound treatment, 0.1 ug/mL Doxycyclin (DOX) was added to induce the expression of the Bim protein. After 24 hrs, cell viability was determined by measuring the ATP levels using a Cell Titer-Glo kit (Promega, G7570) according to the manufacturer's instructions. Luminescence was recorded with a PerkinElmer EnSpire Multimode Plate Reader. Compounds that could rescue cell viability to a level above 50% were selected; these compounds were then screened a second time for assurance.
U2OS_Bim or U2OS_tBid cells were plated at a density of 3000 cells per well in 96-well plates. 24 hrs later, cells were treated with experimental compounds, zVAD (positive control) and DMSO (Negative control) for one hour. The cells were then treated with 0.1 μg/mL DOX to trigger apoptosis. 24 hours after the addition of DOX, cell viability was determined by measuring the ATP levels using a Cell Titer-Glo kit. Cell survival rate was calculated.
U2OS_Bim cells (a U2OS stable cell line transfected with a Bim transgene) were cultured in DMEM culture medium (Gibico). On day one, U2OS_Bim cells were plated in 96-well plates at a density of 3000 cells per well. On day two, cells were pretreated with compounds for one hour. Then cells were treated with 0.1 μg/mL doxycycline (DOX) to trigger apoptosis. 24 hours after DOX treatment, cell viability was determined by measuring the ATP levels using the Cell Titer-Glo kit (G7570, Promega), according to the manufacturer's instructions. Luminescence was recorded with a PerkinElmer EnSpire Multimode Plate Reader. Survived cells were normalized to those cells treated with DMSO. zVAD (20 μM) was used as a positive control. Activity data for compounds […] are represented as means f standard deviation of duplicates; activity data for compounds 187-274 are estimated based on preliminary results.

EC50 [µM]	SMILES
1 to 10	CS(=O)(=O)c1nc(-c2cccs2)cc(-n2cccn2)n1 [Compound 36, 2-(methylsulfonyl)-4-(1H-pyrazol-1-yl)-6-(thiophen-2-yl)pyrimidine]
1 to 10	CS(=O)(=O)c1nc(-c2cccs2)cc(-c2cccs2)n1 [Compound 37, 2-(methylsulfonyl)-4,6-di(thiophen-2-yl)pyrimidine]
< 100	CS(=O)(=O)c1nc(-c2cccs2)cc(N2CCCC2=O)n1 [Compound 38, 1-(2-(methylsulfonyl)-6-(thiophen-2-yl)pyrimidin-4-yl)pyrrolidin-2-one]
< 100	CS(=O)(=O)c1nc(-c2cccs2)cc(-n2ccccc2=O)n1 [Compound 39, 1-(2-(methylsulfonyl)-6-(thiophen-2-yl)pyrimidin-4-yl)pyridine-2 (1H)-one]
< 100	CS(=O)(=O)c1nc(-c2cccs2)cc(N2CCOCC2)n1 [Compound 40, 4-(2-(methylsulfonyl)-6-(thiophen-2-yl)pyrimidin-4-yl)morpholine]
< 100	CS(=O)(=O)c1nc(N=[N+]=[N-])cc(-c2cccs2)n1 [Compound 41, 4-azido-2-(methylsulfonyl)-6-(thiophen-2-yl)pyrimidine]
< 100	CN(C)c1cc(-c2cccs2)nc([S+](C)[O-])n1 (centres unmarked) [Compound 42, N,N-dimethyl-2-(methylsulfinyl)-6-(thiophen-2-yl)pyrimidin-4-amine]
1 to 20	CS(=O)(=O)c1nc(-c2ccccc2F)cc(C(F)(F)F)n1 [Compound 43, 4-(2-fluorophenyl)-2-(methylsulfonyl)-6-(trifluoromethyl)pyrimidine]
1 to 10	CS(=O)(=O)c1nc(-c2cccc(F)c2)cc(C(F)(F)F)n1 [Compound 44, 4-(3-fluorophenyl)-2-(methylsulfonyl)-6-(trifluoromethyl)pyrimidine]
1 to 10	CS(=O)(=O)c1nc(-c2ccc(F)cc2)cc(C(F)(F)F)n1 [Compound 45, 4-(4-fluorophenyl)-2-(methylsulfonyl)-6-(trifluoromethyl)pyrimidine]
1 to 20	Cc1ccccc1-c1cc(C(F)(F)F)nc(S(C)(=O)=O)n1 [Compound 46, 2-(methylsulfonyl)-4-(o-tolyl)-6-(trifluoromethyl)pyrimidine]
1 to 10	Cc1cccc(-c2cc(C(F)(F)F)nc(S(C)(=O)=O)n2)c1 [Compound 47, 2-(methylsulfonyl)-4-(m-tolyl)-6-(trifluoromethyl)pyrimidine]
< 100	Cc1ccc(-c2cc(C(F)(F)F)nc(S(C)(=O)=O)n2)cc1 [Compound 48, 2-(methylsulfonyl)-4-(p-tolyl)-6-(trifluoromethyl)pyrimidine]
< 100	C#Cc1ccc(-c2cc(C(F)(F)F)nc(S(C)(=O)=O)n2)cc1 [Compound 49, 4-(4-ethynylphenyl)-2-(methylsulfonyl)-6-(trifluoromethyl)pyrimidine]
< 100	CS(=O)(=O)c1nc(-c2cccc(O)c2)cc(C(F)(F)F)n1 [Compound 50, 3-(2-(methylsulfonyl)-6-(trifluoromethyl)pyrimidin-4-yl)phenol]
1 to 10	COc1ccccc1-c1cc(C(F)(F)F)nc(S(C)(=O)=O)n1 [Compound 51, 4-(2-methoxyphenyl)-2-(methylsulfonyl)-6-(trifluoromethyl)pyrimidine]
< 100	COc1cccc(-c2cc(C(F)(F)F)nc(S(C)(=O)=O)n2)c1 [Compound 52]
< 100	COc1ccc(-c2cc(C(F)(F)F)nc(S(C)(=O)=O)n2)cc1 [Compound 53, 4-(4-methoxyphenyl)-2-(methylsulfonyl)-6-(trifluoromethyl)pyrimidine]

EC50 [µM]	SMILES
1 to 20	COc1ccc(-c2cc(C(F)(F)F)nc([S+](C)[O-])n2)cc1 (centres unmarked) [Compound 54, 4-(4-methoxyphenyl)-2-(methylsulfinyl)-6-(trifluoromethyl)pyrimidine]
1 to 20	CS(=O)(=O)c1nc(-c2ccccc2C#N)cc(C(F)(F)F)n1 [Compound 55, 2-(2-(methylsulfonyl)-6-(trifluoromethyl)pyrimidin-4-yl)benzonitrile]
1 to 20	CS(=O)(=O)c1nc(-c2cccc(C#N)c2)cc(C(F)(F)F)n1 [Compound 56, 3-(2-(methylsulfonyl)-6-(trifluoromethyl)pyrimidin-4-yl)benzonitrile]
< 100	CS(=O)(=O)c1nc(-c2ccc(C#N)cc2)cc(C(F)(F)F)n1 [Compound 57]
< 100	COC(=O)c1ccccc1-c1cc(C(F)(F)F)nc(S(C)(=O)=O)n1 [Compound 58, methyl 2-(2-(methylsulfonyl)-6-(trifluoromethyl)pyrimidin-4-yl)benzoate]
1 to 10	COC(=O)c1ccccc1-c1cc(C(F)(F)F)nc([S+](C)[O-])n1 (centres unmarked) [Compound 59, methyl 2-(2-(methylsulfinyl)-6-(trifluoromethyl)pyrimidin-4-yl)benzoate]
< 100	COC(=O)c1cccc(-c2cc(C(F)(F)F)nc(S(C)(=O)=O)n2)c1 [Compound 60, methyl 3-(2-(methylsulfonyl)-6-(trifluoromethyl)pyrimidin-4-yl)benzoate]
< 100	COC(=O)c1ccc(-c2cc(C(F)(F)F)nc(S(C)(=O)=O)n2)cc1 [Compound 61, methyl 4-(2-(methylsulfonyl)-6-(trifluoromethyl)pyrimidin-4-yl)benzoate]
< 100	COC(=O)c1ccc(-c2cc(C(F)(F)F)nc([S+](C)[O-])n2)cc1 (centres unmarked) [Compound 62, methyl 4-(2-(methylsulfinyl)-6-(trifluoromethyl)pyrimidin-4-yl)benzoate]
< 100	CS(=O)(=O)c1nc(-c2ccccc2C(=O)O)cc(C(F)(F)F)n1 [Compound 63, 2-(2-(methylsulfonyl)-6-(trifluoromethyl)pyrimidin-4-yl)benzoic acid]
< 100	CS(=O)(=O)c1nc(-c2ccc(C(=O)O)cc2)cc(C(F)(F)F)n1 [Compound 64, 4-(2-(methylsulfonyl)-6-(trifluoromethyl)pyrimidin-4-yl)benzoic acid]
< 100	C[S+]([O-])c1nc(-c2ccc(C(=O)O)cc2)cc(C(F)(F)F)n1 (centres unmarked) [Compound 65, 4-(2-(methylsulfinyl)-6-(trifluoromethyl)pyrimidin-4-yl)benzoic acid]
1 to 10	CS(=O)(=O)c1nc(-c2cccc(C(N)=O)c2)cc(C(F)(F)F)n1 [Compound 66, 3-(2-(methylsulfonyl)-6-(trifluoromethyl)pyrimidin-4-yl)benzamide]
< 100	CNC(=O)c1ccccc1-c1cc(C(F)(F)F)nc(S(C)(=O)=O)n1 [Compound 67, N-methyl-2-(2-(methylsulfonyl)-6-(trifluoromethyl)pyrimidin-4-yl)benzamide]
1 to 20	CNC(=O)c1ccc(-c2cc(C(F)(F)F)nc(S(C)(=O)=O)n2)cc1 [Compound 68, N-methyl-4-(2-(methylsulfonyl)-6-(trifluoromethyl)pyrimidin-4-yl)benzamide]
1 to 10	CN(C)C(=O)c1cccc(-c2cc(C(F)(F)F)nc(S(C)(=O)=O)n2)c1 [Compound 69, N,N-dimethyl-3-(2-(methylsulfonyl)-6-(trifluoromethyl)pyrimidin-4-yl)benzamide]
1 to 10	CS(=O)(=O)c1nc(-c2cccc(Cn3ccccc3=O)c2)cc(C(F)(F)F)n1 [Compound 70, 1-(3-(2-(methylsulfonyl)-6-(trifluoromethyl)pyrimidin-4-yl)benzyl) pyridin-2 (1H)-one]
